Values joined by “and” are separate entries in the source; they are usually repeats but may differ in a detail not shown here. Equal entries are not always repeated.
Tests used:
[1] = biological target: T1, human serum albumin (HSA) (Homo sapiens, UniProt P02768); assay: biochemical; type: binding; details: for unbound fraction of OTA with HSA: OTA 1.0 μM, HSA 1.5 μM, PBS pH 7.4
T1 construct: purchased Merck (Darmstadt, Germany) A1653
Method: (§1) Albumin (with the bound ligand molecules) was sedimented with ultracentrifugation, employing the previously described method.[26],[29],[31] […] These solutions (900 μL) were centrifuged for 16 h at 170,000g and 20 °C, using an Optima MAX-XP tabletop ultracentrifuge (with an MLA-130 fixed-angle rotor; Beckman Coulter, Brea, CA, US). After 200 μL of the protein-free supernatant was carefully aspirated, the free unbound concentration of OTA was directly analyzed from the supernatant by HPLC-FLD (details in Section 2.6). Association constants (Ka) of OTA-HSA and OTA-RSA complexes were calculated based on the following equation, assuming 1:1 stoichiometry of the complex formation:[29],[32] [drawing 3] 3 where [OTA] is the concentration of the unbound free mycotoxin, [SA] is the concentration of the unbound free serum albumin, while [OTA-SA] is the molar concentration of the mycotoxin-albumin complex in the solution.
(§2) OTA was quantified with the previously reported HPLC-FLD method,[48] employing an integrated HPLC system (Jasco, Tokyo, Japan): autosampler (AS-4050), binary pump (PU-4180), fluorescence detector (FP-920), and ChromNAV2 software. Briefly, the isocratic elution was performed with 1.0 mL/min flow rate at room temperature, using sodium borate buffer (0.01 M, pH 10.0) and ACN (87:13 v/v%) as the mobile phase. Samples (20 μL) were driven through a SecurityGuard precolumn (C18, 4.0 × 3.0 mm; Phenomenex, Torrance, CA, US) linked to a Kinetex EVO (C18, 150 × 4.6 mm, 5 μm; Phenomenex) analytical column. The fluorescence detection of the mycotoxin was carried out at 383 and 446 nm excitation and emission wavelengths, respectively.

rat serum albumin (RSA) [2] = biological target: T2, rat serum albumin (RSA) (Rattus norvegicus, UniProt P02770); assay: biochemical; type: binding
T2 construct: purchased Merck (Darmstadt, Germany) A6272
Method: as §1, §2

[3] = biological target: T1, human serum albumin (HSA); assay: Fluorescence emission intensity of OTA-HSA with ligands; type: binding; details: ligand 0–30 μM; OTA 1.0 μM, HSA 1.5 μM; λex 393 nm, λem 446 nm; inner-filter corrected
Method: (§3) Fluorescence spectroscopic studies were carried out using a Hitachi F-4500 spectrofluorometer (Tokyo, Japan). Fluorescence emission spectra were collected, and fluorescence anisotropy values were determined in phosphate-buffered saline (PBS, pH 7.4) at room temperature, using 393 and 446 nm as excitation and emission wavelengths, respectively. […] Absorption spectra of ligand molecules were also recorded employing a Jasco V730 UV–vis spectrophotometer (Tokyo, Japan), after which their inner-filter effects were corrected using the following equation:[28],[29] [drawing 1] 1 where Icor and Iobs are the corrected and the observed fluorescence emission intensities at 446 nm, respectively, while Aex and Aem are the absorbance values of the competitor ligand molecules at 393 and 446 nm, respectively.

rat serum albumin (RSA) [4] = biological target: T2, rat serum albumin (RSA); assay: Fluorescence emission intensity of OTA-RSA with ligands; type: binding; details: ligand 0–30 μM; OTA 1.0 μM, RSA 1.5 μM; λex 393 nm, λem 446 nm; inner-filter corrected
Method: as §3

[5] = biological target: T1, human serum albumin (HSA); assay: Fluorescence anisotropy of OTA-HSA with ligands; type: binding
Method: as §3
(§4) Fluorescence anisotropy (r) values were calculated employing the following equation:[10],[30] [drawing 2] 2 where IVV is the emission intensity measured in vertical positions of the polarizers at both the presample and the postsample sites, IVH is the emission intensity measured in vertical position of the polarizer at presample site and in horizontal position of the polarizer at the postsample site, while G is the instrumental factor (showing the preference of the emission optics for the horizontal orientation to the vertical orientation).

[6] = Plasma and kidney levels of OTA after single i.v. OTA with or without C7S; type: in vivo, Wistar rats
Method: (§5) Male Wistar rats were obtained from Toxi-Coop Ltd. (Budapest, Hungary). The animals (weighing 150–250 g) were kept at 24 ± 2 °C, at 50–60% relative air humidity, and on a 12 h light/dark cycle in the Laboratory Animal House of the Department of Pharmacology and Pharmacotherapy (Medical School, University of Pécs) under standard pathogen-free conditions and were provided with standard rat chow and tap water ad libitum.
(§6) Stock solution of OTA (10 mg/mL) was prepared in 96 v/v% ethanol (Reanal, Budapest, Hungary). C7S (90 mg/mL) were dissolved in dimethyl sulfoxide (Fluka, Charlotte, NC, US). In the i.v. experiments, the final concentration of dimethyl sulfoxide was uniformly 1.67 v/v % in each solution administered. In the per os experiments, CHR was suspended in physiological saline by using a mortar and pestle.
In the first experiment, rats were weighed and then treated intravenously through the tail vein with OTA (50 μg/kg, 2 mL/kg, in physiological saline) without or with C7S (1 or 3 mg/kg). Before and after the treatment, rats consumed feed and water ad libitum. Blood samples (approximately 100–150 μL) were collected from the tail vein into heparinized tubes after 2 and 6 h. After 24 h, blood (cardiac puncture) and kidney samples were collected. Plasma and tissue samples were stored at −80 °C until analysis.
Sample preparation was performed as it has been previously reported.[48] Briefly, after centrifugation, rat plasma was diluted with a 2-fold volume of acetonitrile, and then samples were vortexed, sonicated for 3 min, and centrifuged for 5 min at 14,000g and 4 °C. Thereafter, a 2-fold volume of HPLC eluent (see in Section 2.6) was added to the supernatant. These samples were directly analyzed by HPLC-FLD (see Section 2.6).
After weighing, kidney samples were homogenized with a 2-fold amount of water employing a Potter–Elvehjem tissue homogenizer. Then, 100 μL of homogenate was diluted with 2-fold volume of acetonitrile, after which these samples were treated the same way as plasma samples (vortexing, sonication, centrifugation, 2-fold dilution with HPLC eluent, and then HPLC-FLD analysis).
as §2, with “Samples (20 μL) were driven through a SecurityGuard precolumn (C18, 4.0 × 3.0 mm; Phenomenex, Torrance, CA, US) linked to a Kinetex EVO (C18, 150 × 4.6 mm, 5 μm; Phenomenex) analytical column.” left out

HSA [7] = system: HSA; design: method as in PMID 30562928; details: cited from earlier work
rat serum albumin (RSA) [8] = biological target: T2, rat serum albumin (RSA); assay: Fluorescence anisotropy of OTA-RSA with ligands; type: binding; details: ligand 0–30 μM; OTA 1.0 μM, RSA 1.5 μM
Method: as §3, §4

[9] = Plasma and kidney levels of OTA after repeated peroral OTA with or without CHR; type: in vivo, Wistar rats; details: CHR 1 or 3 mg/kg/day per os with OTA 100 μg/kg/day, three days; sampled on the fourth day
Method: as §5
as §6, with “pestle. […]” for “pestle.”
Sample preparation was performed as it has been previously reported.[48] […] These samples were directly analyzed by HPLC-FLD (see Section 2.6). […]
OTA was quantified with the previously reported HPLC-FLD method,[48] employing an integrated HPLC system (Jasco, Tokyo, Japan): autosampler (AS-4050), binary pump (PU-4180), fluorescence detector (FP-920), and ChromNAV2 software. […] The fluorescence detection of the mycotoxin was carried out at 383 and 446 nm excitation and emission wavelengths, respectively.

HSA [10] = details: cited from earlier work
rat serum albumin (RSA) [11] = biological target: T2, rat serum albumin (RSA); design: method as in doi:10.1016/j.jlumin.2013.08.059; details: cited from earlier work
[12] = system: Bovine serum albumin (BSA); design: method as in doi:10.1016/j.jlumin.2013.08.059; details: cited from earlier work
[13] = design: method as in PMID 37649524; details: cited from earlier work
[14] = ligand 0–30 μM, OTA 1.0 μM, HSA 1.5 μM
[15] = C7S 3 mg/kg i.v. with OTA 50 μg/kg i.v., 24 h

T2 sequence (P02770 25-608): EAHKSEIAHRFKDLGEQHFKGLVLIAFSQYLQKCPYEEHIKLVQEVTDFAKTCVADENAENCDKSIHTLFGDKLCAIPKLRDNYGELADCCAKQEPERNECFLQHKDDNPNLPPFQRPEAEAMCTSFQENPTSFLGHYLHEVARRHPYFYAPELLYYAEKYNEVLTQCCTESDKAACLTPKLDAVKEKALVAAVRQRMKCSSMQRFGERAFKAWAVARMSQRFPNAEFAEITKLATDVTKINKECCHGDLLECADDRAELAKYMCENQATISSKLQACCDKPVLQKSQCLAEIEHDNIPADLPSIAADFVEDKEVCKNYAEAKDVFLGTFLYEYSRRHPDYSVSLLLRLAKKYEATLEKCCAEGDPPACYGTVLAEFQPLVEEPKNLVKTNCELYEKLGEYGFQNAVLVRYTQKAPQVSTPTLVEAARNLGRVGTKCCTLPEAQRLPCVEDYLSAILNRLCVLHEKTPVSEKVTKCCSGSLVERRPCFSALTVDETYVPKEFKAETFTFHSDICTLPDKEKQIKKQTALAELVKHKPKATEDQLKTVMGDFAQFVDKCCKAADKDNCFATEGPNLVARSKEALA
T1 sequence (P02768 25-609): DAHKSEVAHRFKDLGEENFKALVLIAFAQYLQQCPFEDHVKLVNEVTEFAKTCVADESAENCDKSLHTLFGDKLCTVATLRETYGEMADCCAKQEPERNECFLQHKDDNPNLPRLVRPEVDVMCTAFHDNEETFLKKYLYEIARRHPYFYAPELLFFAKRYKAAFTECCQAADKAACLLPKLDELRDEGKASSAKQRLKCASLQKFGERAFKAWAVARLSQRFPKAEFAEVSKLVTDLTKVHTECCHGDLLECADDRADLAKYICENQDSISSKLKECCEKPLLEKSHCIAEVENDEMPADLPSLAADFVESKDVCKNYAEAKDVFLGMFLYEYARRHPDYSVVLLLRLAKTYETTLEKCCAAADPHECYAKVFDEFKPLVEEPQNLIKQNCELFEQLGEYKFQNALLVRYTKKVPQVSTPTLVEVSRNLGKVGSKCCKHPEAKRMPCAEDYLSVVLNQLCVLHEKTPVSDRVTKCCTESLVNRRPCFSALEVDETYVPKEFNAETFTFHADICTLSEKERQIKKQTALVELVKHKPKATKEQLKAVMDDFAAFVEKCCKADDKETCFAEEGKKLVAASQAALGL

Compound | displacement of OTA from HSA (free fraction), in words ([1]; ligand 0–30 μM, overall) | displacement of OTA from RSA (free fraction), in words (rat serum albumin (RSA) [2]; ligand 0–30 μM, overall) | effect on emission signal of OTA-HSA complex, in words [3] | effect on emission signal of OTA-RSA complex, in words (rat serum albumin (RSA) [4]) | effect on fluorescence anisotropy of OTA-HSA, in words [5, 14] | displacement of OTA from HSA (free fraction), in words ([1]; ligand 30 μM) | effect on fluorescence anisotropy of OTA-RSA, in words (rat serum albumin (RSA) [8]) | effect on fluorescence anisotropy of OTA-HSA, in words ([5]; ligand 15 μM) | further results
O=c1cc(-c2ccccc2)oc2cc(OS(=O)(=O)O)cc(O)c12 [C7S, chrysin-7-sulfate] | strongly interfered | strongly disrupted | strong decreases | strong decreases | marked reduction |  |  |  | unbound fraction of OTA with HSA ([1]; ligand 15 μM): 55%; fold lower Ka of OTA-HSA in the presence of the ligand ([1]; ligand 30 μM): approximately 100 fold; unbound fraction of OTA with HSA ([1]; ligand 30 μM): 75%; displacement of OTA from RSA (free fraction), in words (rat serum albumin (RSA) [2]; ligand 30 μM): almost completely displaced; fold lower Ka of OTA-RSA in the presence of the ligand (rat serum albumin (RSA) [2]; ligand 30 μM): approximately 100 fold; effect on plasma levels of OTA, in words ([6]; C7S 1 mg/kg i.v. with OTA 50 μg/kg i.v., 2, 6 and 24 h): did not induce significant changes; effect on kidney levels of OTA, in words ([6]; C7S 1 mg/kg i.v. with OTA 50 μg/kg i.v., 24 h): did not affect; effect on kidney levels of OTA, in words [6, 15]: slightly decreased; effect on plasma levels of OTA, in words [6, 15]: not statistically significant; affinity to HSA, fold higher than CHR (HSA [7]): 3 fold
O=c1cc(-c2ccccc2)oc2cc(O)cc(O)c12 [CHR, Chrysin] |  | weak displacing effects | strong decreases | strong decreases | only slightly decreased | only minor displacement | only slightly decreased |  | effect on kidney levels of OTA, in words [9]: did not cause statistically significant changes; effect on plasma levels of OTA, in words [9]: did not cause statistically significant changes
C[C@@H]1Cc2c(Cl)cc(C(=O)N[C@@H](Cc3ccccc3)C(=O)O)c(O)c2C(=O)O1 [OTA, Ochratoxin A] |  |  |  |  |  |  |  |  | Kd [1]: 40 nM; Kd (rat serum albumin (RSA) [2]; Ka of OTA-RSA complex, no competitor, OTA 1.0 μM, RSA up to 1.5 μM, PBS pH 7.4, 1:1 stoichiometry): 340 nM and 345 nM; association/binding constant of the OTA-HSA complex (HSA [10]): exceeds 10^7 L/mol; fold weaker complex with RSA compared to HSA (rat serum albumin (RSA) [11]): approximately 10 fold; binding constant of OTA-BSA complex [12]: > 10^6 L/mol; fold weaker complex with BSA compared to HSA [12]: approximately 10 fold; free unbound fraction in the human circulation [13]: 0.02%; plasma elimination half-life in man [13]: approximately 35 days
C=CC1=C(C)/C(=C/c2[nH]c(Cc3[nH]c(/C=C4\NC(=O)C(C)=C4C=C)c(C)c3CCC(=O)O)c(CCC(=O)O)c2C)NC1=O [bilirubin] |  | moderate to strong displacement | remarkable decreases | remarkable decreases | smaller, gradual decreases | only a minor elevation | smaller, gradual decreases | marked decreases | displacement of OTA from HSA (free fraction), in words ([1]; ligand 3 and 15 μM): no significant increase
O=C(CCCCC(=O)Nc1c(I)cc(I)c(C(=O)O)c1I)Nc1c(I)cc(I)c(C(=O)O)c1I [iodipamide] |  | weak displacing effects | only slightly modified | only slightly modified | only slightly decreased | only minor displacement | only slightly decreased |  | 
hemin | better displacing effect than bilirubin |  | remarkable decreases | remarkable decreases | smaller, gradual decreases |  | smaller, gradual decreases | marked decreases | displacement of OTA from RSA (free fraction), in words (rat serum albumin (RSA) [2]; ligand 15 and 30 μM): weak to moderate impacts

Source: publication PMC11024961, “Effects of Chrysin and Chrysin-7-sulfate on Ochratoxin A-Albumin Interactions and on the Plasma and Kidney Levels of the Mycotoxin in Rats” (ACS Omega, 2024)
